Tests used:
CYP51 in gut microbiota = experiment: CYP51 activity in colonic contents; type: biochemical, mice; conditions: inhibitor 8 and 20 μg/mL, 6 h, vs. Control
gut microbiota = experiment: FLZ-to-M1 conversion in colonic contents with CYP51 inhibitors; type: in vitro ADME, mice; conditions: FLZ 2 μg/mL with CYP51 inhibitor 8 and 20 μg/mL, 6 h

| Compound | Activity of CYP51 in the reaction system of colonic contents (CYP51 in gut microbiota) | Concentration of FLZ in the colonic contents (gut microbiota) | Concentration of M1 in the colonic contents (gut microbiota) | Ratio of M1/FLZ in gut microbiota (gut microbiota) |
| --- | --- | --- | --- | --- |
| CCC(C)n1ncn(-c2ccc(N3CCN(c4ccc(OCC5COC(Cn6cncn6)(c6ccc(Cl)cc6Cl)O5)cc4)CC3)cc2)c1=O (stereo not shown) [itraconazole] | inhibited | increased | decreased | reduced |
| C[C@@H](c1ncncc1F)[C@](O)(Cn1cncn1)c1ccc(F)cc1F [voriconazole] | inhibited | increased | decreased | – |
